The subject of one experiment is pre-iPS cells. As to the kind of experiment: Adding inhibitors to pre-iPS cells in the presence of foetal calf serum plus LIF. It counts as cell-based, mouse. As to conditions: for effect on Oct4-GFP activation: foetal calf serum plus LIF, inhibitor alone. From the text:
We also examined the effect of adding inhibitors in the presence of foetal calf serum plus LIF. The addition of 2i induced stable activation of Oct4-GFP in around 10% of emerging colonies. […] The reduced frequency compared with serum-free 2i culture may be because the ability of PD0325901 to suppress Erk activation is counteracted by serum factors.

The subject of experiment [1] is Oct4-GFP expressing I-iPS cells. As to the kind of experiment: Oct4-GFP reporter activity of partially reprogrammed cells cultured in Fgf2 and activin, with activin receptor inhibitor. It counts as cell-based, mouse. The conditions noted are these: serum free. The source says:
Culture of FACS purified GFP expressing incomplete (I) iPS cells in Fgf2 and activin (left) and subsequently on addition of activin receptor inhibitor SB431542 (right). To further investigate the phenotype of these partially reprogrammed cells we assessed Oct4 reporter activity in different culture environments. In conventional ES cell culture using the self renewal cytokine Leukaemia Inhibitory Factor (LIF) and serum in presence or absence of feeders, Oct4-GFP expression was not maintained. In contrast, reporter expression stabilized when cells were cultured serum free in the presence of Fgf2 and activin (FIG. 2). These are conditions used for the propagation of EpiSCs derived from post-implantation embryos (Brons et al., 2007; Tesar et al., 2007). […] We conclude that NS cells are efficiently converted by the reprogramming factors into a heterogeneous cell population with certain properties of EpiSCs rather than ES cells.

On to `Cc1c[nH]c(-c2cnc(NCCNc3ccc(C#N)cn3)nc2-c2ccc(Cl)cc2Cl)n1` [GSK3 inhibitor, CHIR99021], for which the “effect on Oct4-GFP activation” value in the experiment on pre-iPS cells is recorded as “no discernible effect”. On to `O=C(NOC[C@H](O)CO)c1ccc(F)c(F)c1Nc1ccc(I)cc1F` [MEK inhibitor, PD0325901], for which the “expression of Nanog and Rex1” value with pre-iPS cells (cells expanded in serum and LIF) is “acquired expression of Nanog and Rex1”. In addition, the “effect on Oct4-GFP activation” value in the experiment with pre-iPS cells is reported as “comparable to 2i”. As to `NC(=O)c1ccc(-c2nc(-c3ccc4c(c3)OCO4)c(-c3ccccn3)[nH]2)cc1` [SB43154212, SB431542], the “effect of inhibitor on Oct4-GFP reporter activity and cells” value in experiment [1] was “loss of reporter activity, cell death and differentiation”.

Source of the values: patent publication US20100330677A1, “Improved Reprogramming of Mammalian Cells, and Cells Obtained” (Cambridge Enterprise Limited, priority 2008, published 2010).
